We go through two molecules from PubChem BioAssay AID1259407 (Chemical Carcinogenesis Research Information System (CCRIS), 2018).

The data set concerns CCRIS mutagenicity, Ames/micronucleus/aberration tests. Put plainly: CCRIS mutagenicity studies.
The mark [1] stands for this setting: Test System: AMES SALMONELLA TYPHIMURIUM, Strain/Indicator: TA100, Metabolic Activation: NONE, Method: PREINCUBATION

Active and inactive are the calls of the source. The rule behind the calls is not given here.

`c1ccc(-c2ccccc2)cc1`: the mutagenic call is, setting by setting: (Test System: AMES SALMONELLA TYPHIMURIUM, Strain/Indicator: TA97, Metabolic Activation: NONE, Method: STANDARD PLATE) “inactive; negative”; (Test System: AMES SALMONELLA TYPHIMURIUM, Strain/Indicator: TA97, Metabolic Activation: RAT, LIVER, S-9, AROCLOR 1254, Method: STANDARD PLATE) “inactive; negative”; (Test System: AMES SALMONELLA TYPHIMURIUM, Strain/Indicator: TA98, Metabolic Activation: NONE, Method: PREINCUBATION) “inactive; negative”; (Test System: AMES SALMONELLA TYPHIMURIUM, Strain/Indicator: TA98, Metabolic Activation: NONE, Method: STANDARD PLATE) “inactive; negative”; (Test System: AMES SALMONELLA TYPHIMURIUM, Strain/Indicator: TA98, Metabolic Activation: RAT LIVER S-9, PHENOBARBITAL AND BETA-NAPHTHOFLAVONE, Method: PREINCUBATION) “inactive; negative”; (Test System: AMES SALMONELLA TYPHIMURIUM, Strain/Indicator: TA98, Metabolic Activation: RAT, LIVER, S-9, AROCLOR 1254, Method: STANDARD PLATE) “inactive; negative”. For the same molecule, the mutagenic call under setting [1] was “inactive; negative”; the mutagenic call (Test System: AMES SALMONELLA TYPHIMURIUM, Strain/Indicator: TA100, Metabolic Activation: NONE, Method: STANDARD PLATE) is “inactive; negative”; the mutagenic call (Test System: AMES SALMONELLA TYPHIMURIUM, Strain/Indicator: TA100, Metabolic Activation: RAT LIVER S-9, PHENOBARBITAL AND BETA-NAPHTHOFLAVONE, Method: PREINCUBATION) is “inactive; negative”; the mutagenic call (Test System: AMES SALMONELLA TYPHIMURIUM, Strain/Indicator: TA100, Metabolic Activation: RAT, LIVER, S-9, AROCLOR 1254, Method: STANDARD PLATE) was “inactive; negative”; the mutagenic call (Test System: AMES SALMONELLA TYPHIMURIUM, Strain/Indicator: TA1535, Metabolic Activation: NONE, Method: PREINCUBATION) was “inactive; negative”; the mutagenic call (Test System: AMES SALMONELLA TYPHIMURIUM, Strain/Indicator: TA1535, Metabolic Activation: NONE, Method: STANDARD PLATE) was “inactive; negative”. For the same molecule, the mutagenic call is “inactive; negative” (Test System: AMES SALMONELLA TYPHIMURIUM, Strain/Indicator: TA1535, Metabolic Activation: RAT LIVER S-9, PHENOBARBITAL AND BETA-NAPHTHOFLAVONE, Method: PREINCUBATION); “inactive; negative” (Test System: AMES SALMONELLA TYPHIMURIUM, Strain/Indicator: TA1535, Metabolic Activation: RAT, LIVER, S-9, AROCLOR 1254, Method: STANDARD PLATE); “inactive; negative” (Test System: AMES SALMONELLA TYPHIMURIUM, Strain/Indicator: TA1537, Metabolic Activation: NONE, Method: PREINCUBATION); “inactive; negative” (Test System: AMES SALMONELLA TYPHIMURIUM, Strain/Indicator: TA1537, Metabolic Activation: NONE, Method: STANDARD PLATE); “inactive; negative” (Test System: AMES SALMONELLA TYPHIMURIUM, Strain/Indicator: TA1537, Metabolic Activation: RAT LIVER S-9, PHENOBARBITAL AND BETA-NAPHTHOFLAVONE, Method: PREINCUBATION); “inactive; negative” (Test System: AMES SALMONELLA TYPHIMURIUM, Strain/Indicator: TA1537, Metabolic Activation: RAT, LIVER, S-9, AROCLOR 1254, Method: STANDARD PLATE). In addition, the mutagenic call is, setting by setting: (Test System: E. COLI, Strain/Indicator: WP2, Metabolic Activation: NONE, Method: STANDARD PLATE) “inactive; negative”; (Test System: E. COLI, Strain/Indicator: WP2, Metabolic Activation: RAT, LIVER, S-9, AROCLOR 1254, Method: STANDARD PLATE) “inactive; negative”; (Test System: E.COLI, Strain/Indicator: WP2UVRA, Metabolic Activation: NONE, Method: PREINCUBATION) “inactive; negative”; (Test System: E.COLI, Strain/Indicator: WP2UVRA, Metabolic Activation: RAT LIVER S-9, PHENOBARBITAL AND BETA-NAPHTHOFLAVONE, Method: PREINCUBATION) “inactive; negative”; (Test System: MOUSE LYMPHOMA, Strain/Indicator: L5178Y (TK+/TK-), Metabolic Activation: NONE, Method: SUSPENSION/PLATE) “active; positive”; (Test System: MOUSE LYMPHOMA, Strain/Indicator: L5178Y (TK+/TK-), Metabolic Activation: RAT, LIVER, S-9, AROCLOR 1254, Method: SUSPENSION/PLATE) “active; positive”.
Regarding `CC(=O)OCc1ccc(N=Nc2ccccc2COC(C)=O)cc1`, the mutagenic call is “active; positive” under setting [1] and “inactive; negative” (Test System: AMES SALMONELLA TYPHIMURIUM, Strain/Indicator: TA100, Metabolic Activation: RAT, LIVER, S-9, POLYCHLORINATED BIPHENYLS, Method: PREINCUBATION).
